Measured values published in a melting point compilation (Tetko et al.; mined from patent text by program, amines drawn as free bases though some values may be those of a salt).

melting point [°C] | SMILES
142 to 145 | CCOC(=O)C1=C(COCc2cccnc2)NC(COCc2cccnc2)=C(C(=O)OCC)C1c1ccccc1[N+](=O)[O-]
225 to 227 | Cc1cc(=O)c(C(=O)NS(C)(=O)=O)nn1-c1ccc(Cl)cc1
146 to 148 | CCCCN(C(C)=O)C1NC(=O)N(c2cccc(C(F)(F)F)c2)C(=O)N1
153 to 155 | N#CNC(=N)NC1CCCc2ccccc21 (stereo unspecified)
202 to 205 | CCOc1cc2c(c3c1OC(C)(C)C3)C(c1cccc(NC(N)=O)c1)=NC(C)(C)C2
61 to 62 | O=C(Cc1ccccn1)Nc1ccc(CCCc2ccccc2OCc2ccccc2)cc1
180 | CC(C)(C)c1cc(CCc2ccccc2NC(=O)NCCc2ccccn2)cc(C(C)(C)C)c1O
92 to 93 | c1coc(-c2nnc(Sc3cnccn3)o2)c1
138 to 147 | CNC(=O)c1ccc(Nc2nc(Nc3cc4c(cc3OC)CCN(CC(=O)N(C)C)CC4)ncc2Cl)c(OC)c1
153 | CC(=O)OC1CSC(Oc2cnc(-c3ccncc3)c(Cl)c2)C(OC(C)=O)C1OC(C)=O (stereo unspecified)
212 to 215 | Nc1cc(Cl)cc(Cc2cc(Cl)cc(N)c2O)c1O
123 to 124 | O=C(Nc1ccc(Br)c(C(F)(F)F)c1)c1ccccc1NCc1ccncc1
107 to 108 | CCOc1c(OC)cc(C(=O)OC)c(-c2c(C(=O)OC)cc(OC)c3c2OCO3)c1OCC
251 to 252 | Cn1ncc(/C=C/C(=O)Nc2ccc(CS(C)(=O)=O)cc2)c1-c1ccc(F)cc1
211 to 213 | CCC(=O)Nc1ccc(-c2ccnc3c(C(=O)c4ccccc4)cnn23)cc1
200 to 202 | COc1cc(C(=O)NCc2ccc3c(c2)C(=C2CCN(C)CC2)c2ccccc2C=C3)cc(OC)c1OC
112 | COC(=O)C1C(C)=NC(N2CCCCC2)=C(C(=O)OC(C)C)C1c1cccc([N+](=O)[O-])c1 (stereo unspecified)
85 to 88 | CCCCCCCCCCCCCCCCCCOc1cc(OCCCOc2ccc(O)cc2)cc(C(=O)OC)c1
168 | COc1ccc(N2CCNC2=O)cc1OC
164 to 165 | COCCOCCOC(=O)C1C=Nc2c(ccc3cccnc23)C1=O (stereo unspecified)
198 to 200 | CCc1cc(C(=O)O)c(Nc2ccc(F)cc2[N+](=O)[O-])s1
225 to 226 | O=C(Nc1cnc2sc(CO)nc2c1)c1cc2cc(F)ccc2n1Cc1cccc(F)c1
91 to 95 | CC(C)c1ccc2ncn(/C=C/C(=O)NCCNCc3ccccn3)c(=O)c2c1
65 to 67 | CCCCCCCCCCCCCCOc1ccc(CN(C(C)=O)c2cccc(CO)c2)cc1

melting point [°C] | SMILES
160 to 162 | C(=C(/c1ccccc1)n1c2ccccc2c2ccccc21)/c1ccccc1
191 | CC(=O)Nc1ccc(N2CCC(O)CC2)cc1
83 to 86 | c1ccc(CN2CCN(Cc3ccccc3)[C@@H](CCc3ccccn3)C2)cc1
194 to 196 | Cc1ccc(C(=O)NC(NC(=NC#N)Nc2ccc(Cl)nc2)C(C)(C)C)cc1 (stereo unspecified)
95 to 97 | COCCc1ccc(OCC(O)CNC2CCc3ccccc3C2)cc1 (stereo unspecified)
157 to 158 | CC(C)(C)c1csc(-c2nc(Cl)c(Cl)[nH]2)n1
118 to 120 | NC(=NCC(F)(F)F)Nc1ccnc(OCCCO)n1
111 | CC(=O)Oc1ccc(-c2cnc(C)nc2Cl)cc1OC(C)=O
220 | CS(=O)(=O)N[C@H]1CC[C@H](CCN2CCN(c3nccc4c3CCO4)CC2)CC1
104 to 110 | NC(=S)NN=C(CNC(=O)C1CCCCC1)c1ccccc1
142 to 143 | COc1nc2ccccc2cc1N(C)C(=O)N1CCN(c2cc(C)cc(C)c2)CC1
145 | O=C(NCc1cccc2nc(N[C@@H]3CCc4ccccc43)ccc12)c1ccc(F)cc1
97 to 99 | CCCCOCCCNC(=O)c1cnc(C(=O)NCC(=O)OCc2ccccc2)c(OC)c1
100 | c1ccc(-c2cc(OCCN3CCOCC3)[nH]n2)cc1
214 | O=C1CC(c2csc(-n3ccnc3)n2)=Nc2ccc(-c3ccc(F)cc3)cc2N1
263 | Cc1nc(NC(=O)c2nnn(Cc3ccc(Cl)c(Cl)c3)c2C)sc1C(=O)O
80 to 81 | Cc1cc(NCc2ccccc2)c2c(c1)C(c1ccc(C(C)C)cc1)C(C)(C)O2 (stereo unspecified)
281 to 282 | N#Cc1c(Cl)c(F)cc2c(=O)c(C(=O)O)cn(C3CC3)c12
62 to 63 | O=[N+]([O-])c1cc(C(F)(F)F)ccc1-c1ccno1
153 to 156 | O=C(NCCCCC1CCSS1)NS(=O)(=O)NC(=O)NCCCCC1CCSS1 (stereo unspecified)
240 to 242 | COc1ccccc1-n1c(=O)[nH]c2ccc(-c3cccc(O)c3)nc21
109 to 110 | Cc1ccc(C)c2oc(CN3CCC[C@@H](OCc4cc(C(F)(F)F)cc(C(F)(F)F)c4)[C@H]3c3ccccc3)nc12 (relative stereo)
219 to 221 | O=C(c1ccc2c(c1)[C@@H](O)[C@H](Br)CCO2)c1ccccc1F (relative stereo)
215 to 217 | CCCn1c(=O)c2c(nc(C=Cc3ccc(C(=O)O)cc3)n2C)n(CCC)c1=O

melting point [°C] | SMILES
76 to 77 | Cc1cc(Cl)cc(C(=O)CC(=O)C2CCCCC2)c1O
193 to 196 | Cc1cc(C2=NN(C(=S)Cl)[C@H](C)Cc3cc4c(cc32)OCO4)ccc1[N+](=O)[O-]
125 to 127 | O=c1oc(-c2cccc(Cl)c2)cc(O)c1SCCc1ccccc1
160 to 162 | CN1CCN(c2cc3c(cc2F)c(=O)n(O)c(=O)n3-c2ccccc2F)CC1
65 to 66 | CCOC(=O)/C=C/C=C/c1ccc(OCC(F)(F)C(F)F)cc1
148 | COc1ccc(Sc2nc(-c3ccc(OC)cc3)c(-c3ccc(OC)cc3)[nH]2)cc1
234 to 235 | COc1cc(C(=O)Nc2nn(-c3ccccc3)cc2C=O)ccc1OCc1nc(-c2ccccc2)oc1C
70 to 72 | COCOc1ccc(CCCOc2c(CC(=O)O)cccc2OC)c(Oc2ccc(C(F)(F)F)cn2)c1
101 | Cc1cc(Oc2ccccc2)nc2ccccc12
150 | CN(C)C(=O)c1sc(C(c2ccc(Cl)cc2)c2c(Cl)cc(-n3ncc(=O)[nH]c3=O)cc2Cl)nc1-c1ccccc1 (stereo unspecified)
88 to 90 | CCCC(=O)c1cc(O)c(O)c([N+](=O)[O-])c1
161 to 162 | CN(O)C(=O)NCCCOc1ccc(-c2ccccc2)cc1
85 to 86 | CC(Oc1ncnc2ccccc12)c1ccc(C(C)(C)C)cc1 (stereo unspecified)
111 to 112 | CC(C)(C)OC(=O)N[C@H](Cc1ccc(C(F)(F)F)o1)[C@@H](O)c1ccc(F)cc1 (racemic)
220 | Cc1ccc(-c2cc(C(F)(F)F)n3cnc(C#N)c3n2)cc1C(F)(F)F
172 to 174 | O=C(NCC1CCN(C[C@H]2COc3ccc(Cl)cc3O2)CC1)c1cccnc1
73 to 75 | COc1ccc(CCc2cc(OC)c(OC)c(OC)c2)cc1
148 to 149 | COc1ccc(C(=O)Nc2ccc(F)c(F)c2)cc1NCc1cccnc1
137 to 138 | O=C(O)C(Cl)=C(Cl)C(O)=NCCc1ccc(F)cc1
177 to 179 | CCOc1ccccc1C(=O)Nc1c(OC)cccc1C(N)=O
110 to 114 | CCCOC(=O)c1cccc(CCN(C)CCCC(C#N)(c2ccc(OC)c(OC)c2)C(C)C)c1 (stereo unspecified)
165 to 167 | CCN(CC)C(=O)CCC(=O)Nc1ccc(C(=O)N2CCCCc3ccccc32)cc1
65 to 69 | CN(CCCCCCNC(=O)NCCCOc1cccc(CN2CCCCC2)c1)CCN(Cc1ccc(F)cc1)c1ccccn1
191 to 192 | N#CC(C#N)=CN(N=C(C#N)C#N)c1ccc(Br)cc1

melting point [°C] | SMILES
52 to 53 | O=[N+]([O-])c1cc(Br)ccc1-c1ccc(F)cc1F
192 to 194 | CC(=O)NC[C@H]1CN(c2ccc(N3CCC(=C(C#N)CCO)CC3)c(F)c2)C(=O)O1
156 to 158 | COc1cc(S(N)(=O)=O)cnc1Cl
220 to 221 | CCOC(=O)c1cn(C2CC2)c2c(C)c(F)c(F)cc2c1=O
170 to 172 | O=C(c1ccc(-c2ccccn2)cc1)N1Cc2cccn2Cc2ccccc21
183 to 185 | Cc1nc(-c2ccc(-c3cccs3)cc2)c(-c2ccc(S(C)(=O)=O)cc2)o1
99 to 101 | Cc1nn(-c2cc(Oc3ccc([N+](=O)[O-])cc3)c(Cl)cc2Cl)c(=O)n1C(F)F
253 to 254 | CCOC(=O)c1cnc2c3cc(NC(=O)CC(C)(C)C)ccc3ncn2c1=O
72 to 78 | O=C1OCCC=C1c1ccc(F)c(F)c1
192 | COc1ccc(C=C2c3ccccc3CCc3ccccc32)cc1NS(C)(=O)=O
216 to 218 | O=[N+]([O-])c1ccc(C#Cc2ccccc2)c(-c2cc([N+](=O)[O-])ccc2C#Cc2ccccc2)c1
130 | CCCCCCCC(=O)c1ccc(OC(C)=O)c(C(=O)O)c1
174 to 175 | CC1(CCSc2nc3ccccc3o2)Cn2cc([N+](=O)[O-])nc2O1 (stereo unspecified)
135 to 136 | COC(=O)Cc1oc2ccc(Cl)cc2c1-c1ccccc1C
196 to 198 | O=C1c2c(O)ccc(O)c2C(=O)c2c(NCCNCCO)ccc(O)c21
138 to 140 | N#Cc1ccc(CCCN2C(=O)c3ccccc3C2=O)cc1
215 to 219 | Nc1cc(-n2cc(C(=O)O)c(=O)c3cc(F)c(NCCO)c(Cl)c32)c(F)cc1F
191 | O=C(CC1CCOCC1)N[C@H]1CC[C@H](CCN2CCC(c3cccc4c3CCO4)CC2)CC1
191 to 192 | O=C(N[C@H](Cc1ccc(CC(F)(F)C(F)(F)F)cc1)[C@@H](O)c1cccc(Cl)c1)c1ccc(F)c2ccccc12 (racemic)
287 to 291 | CC(C)Cn1c(CN)nc2c(N)nc3ccccc3c21
94 to 95 | O=C1CC(c2ccco2)Cc2occ(C(F)(F)F)c21 (stereo unspecified)

SMILES | melting point [°C]
OC(Cc1ccccc1Cl)(Cn1cncn1)C1(Cl)CC1 (stereo unspecified) | 107
N#Cc1ncccc1C(=O)OCC(Cl)(Cl)Cl | 103
CC1COC2(CCN(C(=O)C(Cl)Cl)CC2)O1 (stereo unspecified) | 115
